This passage reports GI50 results from patent US11319322B2, “Substituted aryl ether compound, preparation method thereof, pharmaceutical composition and use thereof” (Xiamen University, priority 2017, dated 2022).

The target of one assay is T1, KIF5B-RET-BaF3 (Homo sapiens, UniProt P07949).
T1 construct: fused on or other part: P33176 (Kinesin-1 heavy chain)
Description: Growth inhibition of KIF5B-RET-BaF3 cells stably transfected with kinase (MTS). Type of assay: cell-based. The conditions noted are these: 48 h, read-out: KIF5B-RET (IC50/nM). The essentials:
(§1)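 BaF3 cells stably expressing CCDC6-RET or KIF5B-RET, or parental BaF3, 2×10^4 cells/well, treated 48 h at 37 °C with 8-point 1:3 dilutions from 10 μM (0.1% DMSO). MTS/PES added 1–4 h, OD490 read; inhibition versus DMSO and blank gave IC50.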

In a further assay the target is T2, CCDC6-RET-BaF3 (Homo sapiens, UniProt P07949).
T2 construct: fused on or other part: Q16204 (Coiled-coil domain-containing protein 6)
The assay is described as follows: Growth inhibition of CCDC6-RET-BaF3 cells stably transfected with kinase (MTS). Format: cell-based. To be noted: 48 h, read-out: CCDC6-RET (IC50/nM). The essentials: as §1

T2 sequence (P07949 whole entry, change not shown, the tested form may be a part): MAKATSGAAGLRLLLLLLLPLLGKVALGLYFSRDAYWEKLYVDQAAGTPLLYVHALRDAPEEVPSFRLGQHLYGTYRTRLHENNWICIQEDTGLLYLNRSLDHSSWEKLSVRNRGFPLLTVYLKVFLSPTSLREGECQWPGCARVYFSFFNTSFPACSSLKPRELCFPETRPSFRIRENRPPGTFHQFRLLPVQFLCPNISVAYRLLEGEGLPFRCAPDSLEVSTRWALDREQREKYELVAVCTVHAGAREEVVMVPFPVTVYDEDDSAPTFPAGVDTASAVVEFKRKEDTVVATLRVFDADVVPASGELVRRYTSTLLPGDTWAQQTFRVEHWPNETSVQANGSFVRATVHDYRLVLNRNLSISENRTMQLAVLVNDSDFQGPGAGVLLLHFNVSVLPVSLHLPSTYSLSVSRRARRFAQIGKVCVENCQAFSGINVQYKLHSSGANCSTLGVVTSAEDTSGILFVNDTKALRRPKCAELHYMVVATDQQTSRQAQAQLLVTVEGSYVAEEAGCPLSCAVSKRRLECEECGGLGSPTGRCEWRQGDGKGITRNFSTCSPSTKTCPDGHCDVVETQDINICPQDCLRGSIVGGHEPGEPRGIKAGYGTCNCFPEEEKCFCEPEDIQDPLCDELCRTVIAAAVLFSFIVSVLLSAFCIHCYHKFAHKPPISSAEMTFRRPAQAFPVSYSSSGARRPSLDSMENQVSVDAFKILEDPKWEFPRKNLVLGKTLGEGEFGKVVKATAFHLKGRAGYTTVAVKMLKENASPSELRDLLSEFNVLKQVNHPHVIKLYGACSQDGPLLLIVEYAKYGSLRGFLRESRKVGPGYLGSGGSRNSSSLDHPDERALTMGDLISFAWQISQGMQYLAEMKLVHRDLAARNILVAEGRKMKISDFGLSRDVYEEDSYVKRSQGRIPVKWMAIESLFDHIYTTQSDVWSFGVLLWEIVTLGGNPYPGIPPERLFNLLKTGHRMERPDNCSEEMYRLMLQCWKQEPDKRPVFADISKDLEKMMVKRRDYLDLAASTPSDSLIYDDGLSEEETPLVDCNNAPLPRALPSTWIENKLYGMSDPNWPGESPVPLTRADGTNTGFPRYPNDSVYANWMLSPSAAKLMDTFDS
T1 sequence (P07949 whole entry, change not shown, the tested form may be a part): as above

Turning to `Cc1ccc(Oc2ncnc3c2ncn3C)cc1C(=O)Nc1ccc(CN2CCN(C)CC2)c(C(F)(F)F)c1` [I-n-13], the GI50 on KIF5B-RET-BaF3 stood at 4850 nM; on CCDC6-RET-BaF3, 3010 nM.
The corresponding values for `CC(=O)NCC1CCN(c2ccc(NC(=O)c3ccc(C)c(Oc4nc(-c5cccnc5)nc5c4cnn5C)c3)cc2C(F)(F)F)CC1` [II-v-10] are 463 nM and 492 nM.
For `CN1CCN(Cc2ccc(NC(=O)c3cc(Oc4nc(-c5ccc(Cl)cc5)nc5c4ncn5C)ccc3Cl)cc2C(F)(F)F)CC1` [I-o-5] the same measures were 1390 nM and 1320 nM.
For `CN1CCN(Cc2ccc(NC(=O)c3cccc(Oc4nc(-c5ccncc5)nc5ccn(C)c45)c3)cc2C(F)(F)F)CC1` [III-l-4] the same measures were 11.3 nM and 18.7 nM.
With `Cc1ccc(Nc2nc(Oc3cc(C(=O)Nc4ccc(CN5CCN(C)CC5)c(C(F)(F)F)c4)ccc3C)c3cnn(C)c3n2)cc1` [II-m-13], the GI50 on KIF5B-RET-BaF3 worked out at 172 nM; on CCDC6-RET-BaF3, 253 nM.
The corresponding values for `CN1CCN(Cc2ccc(NC(=O)c3cc(Oc4nc(-c5cccc(Cl)c5)nc5nn(C)cc45)ccc3Cl)cc2C(F)(F)F)CC1` [IV-o-4] are 3110 nM and 4280 nM.
The corresponding values for `Cc1ccc(C(=O)Nc2ccc(CN3CCN(C)CC3)c(C(F)(F)F)c2)cc1Oc1nc(-c2ccc(O)cc2)nc2c1cnn2C` [II-m-8] are 56.9 nM and 166 nM.
Consider `Cc1cn(-c2cc(NC(=O)c3ccc(C)c(Oc4nc(-c5ccncc5)nc5c4cnn5C)c3)cc(C(F)(F)F)c2)cn1` [II-t-2], for which the GI50 on KIF5B-RET-BaF3 was determined as 2620 nM; at CCDC6-RET-BaF3 it was 1570 nM.
The corresponding values for `Cc1ccc(C(=O)Nc2ccc(CN3CCN(C)CC3)c(C(F)(F)F)c2)cc1Oc1ncnc2c1cnn2C` [II-m-19] are 124 nM and 54.9 nM.
For `CN1CCN(Cc2cc(NC(=O)c3cccc(Oc4nc(-c5cccnc5)nc5c4cnn5C)c3)cc(C(F)(F)F)c2)CC1` [II-p-1] the same measures were 251 nM and 268 nM.
As to `Cc1ccc(Oc2nc(-c3ccncc3)nc3c2cnn3C)cc1C(=O)Nc1ccc(CN2CCN(C)CC2)c(C(F)(F)F)c1` [II-n-2], the GI50 at KIF5B-RET-BaF3 worked out at 440 nM; at CCDC6-RET-BaF3, 1520 nM.
For the molecule `CN1CCN(Cc2ccc(NC(=O)c3cc(Oc4nc(-c5ccncc5)nc5c4cnn5C)ccc3Cl)cc2C(F)(F)F)CC1` [II-o-2], the values for the GI50 on KIF5B-RET-BaF3 and at CCDC6-RET-BaF3 were 130 nM and 108 nM, respectively.
Regarding `Cc1ccc(NC(=O)c2ccc(CN3CCN(C)CC3)c(C(F)(F)F)c2)cc1Oc1cc(-c2ccncc2)nc2sccc12` [VII-i-2], the GI50 on KIF5B-RET-BaF3 was determined as 1330 nM; on CCDC6-RET-BaF3, 1360 nM.
The corresponding values for `Cc1ccc(Oc2nc(-c3ccc(Cl)cc3)nc3nn(C)cc23)cc1C(=O)Nc1ccc(CN2CCN(C)CC2)c(C(F)(F)F)c1` [IV-n-5] are 2320 nM and 2960 nM.
The corresponding values for `CC(=O)NC1CCN(c2ccc(NC(=O)c3ccc(C)c(Oc4nc(-c5ccncc5)nc5c4cnn5C)c3)cc2C(F)(F)F)CC1` [II-v-13] are 587 nM and 533 nM.
For `Cc1ccc(Oc2cc(-c3ccncc3)nc3sccc23)cc1C(=O)Nc1ccc(CN2CCN(C)CC2)c(C(F)(F)F)c1` [VII-n-2] the same measures were 405 nM and 221 nM.
As for `CN1CCN(Cc2ccc(NC(=O)c3cc(Oc4cc(-c5ccncc5)nc5sccc45)ccc3Cl)cc2C(F)(F)F)CC1` [VII-o-2], the GI50 on KIF5B-RET-BaF3 was 499 nM; on CCDC6-RET-BaF3 it was 326 nM.
The corresponding values for `Cc1ccc(Oc2nc(-c3cccc(Cl)c3)nc3nn(C)cc23)cc1C(=O)Nc1ccc(CN2CCN(C)CC2)c(C(F)(F)F)c1` [IV-n-4] are 1710 nM and 3900 nM.
For the molecule `Cc1ccc(NC(=O)c2ccc(CN3CCN(C)CC3)c(C(F)(F)F)c2)cc1Oc1ncnc2c1cnn2C` [II-i-3], the figures for the GI50 at KIF5B-RET-BaF3 and at CCDC6-RET-BaF3 were 1040 nM and 881 nM, respectively.
For `Cc1ccc(Oc2cc(-c3ccncc3)nc3sccc23)cc1NC(=O)c1ccc(CN2CCN(C)CC2)c(C(F)(F)F)c1` [VII-j-2] the same measures were 189 nM and 95.6 nM.
For `Cc1ccc(Oc2nc(-c3ccc(Cl)cc3)nc3c2ncn3C)cc1C(=O)Nc1ccc(CN2CCN(C)CC2)c(C(F)(F)F)c1` [I-n-6] the same measures were 1380 nM and 1780 nM.
The corresponding values for `Cc1ccc(NC(=O)c2ccc(CN3CCN(C)CC3)c(C(F)(F)F)c2)cc1Oc1nc(-c2ccncc2)nc2ccsc12` [VI-i-2] are 7420 nM and 5700 nM.
Regarding `CN1CCN(Cc2ccc(NC(=O)c3cc(Oc4nc(-c5cccnc5)nc5nn(C)cc45)ccc3Cl)cc2C(F)(F)F)CC1` [IV-o-1], the GI50 on KIF5B-RET-BaF3 is 1720 nM; on CCDC6-RET-BaF3 it was 1980 nM.
For `Cc1ccc(C(=O)Nc2ccc(CN3CCN(C)CC3)c(C(F)(F)F)c2)cc1Oc1nc(-c2ccc(Cl)cc2)nc2c1cnn2C` [II-m-6] the same measures were 114 nM and 696 nM.
For `Cc1ccc(NC(=O)c2ccc(CN3CCN(C)CC3)c(C(F)(F)F)c2)cc1Oc1nc(-c2ccncc2)nc2c1cnn2C` [II-i-2] the same measures were 469 nM and 617 nM.
For `CN1CCN(Cc2ccc(NC(=O)c3cc(Oc4nc(-c5ccc(N)cc5)nc5nn(C)cc45)ccc3Cl)cc2C(F)(F)F)CC1` [IV-o-9] the same measures were 4360 nM and 4810 nM.
Take `Cc1ccc(Oc2nc(-c3ccncc3)nc3c2ncn3C)cc1C(=O)Nc1cccc(C(F)(F)F)c1` [I-f-2]: the GI50 at KIF5B-RET-BaF3 was found to be 8120 nM; on CCDC6-RET-BaF3 it was 4850 nM.
With `Cc1ccc(C(=O)Nc2ccc(CN3CCN(C)CC3)c(C(F)(F)F)c2)cc1Oc1nc(NC2CC2)nc2c1cnn2C` [II-m-14], the values for the GI50 on KIF5B-RET-BaF3 and at CCDC6-RET-BaF3 were 21.6 nM and 9.31 nM, respectively.
Turning to `Cc1ccc(Oc2nc(-c3ccncc3)nc3c2ncn3C(C)C)cc1C(=O)Nc1ccc(CN2CCN(C)CC2)c(C(F)(F)F)c1` [I-n-14], the GI50 stood at 47 nM at KIF5B-RET-BaF3 and 163 nM on CCDC6-RET-BaF3.
The corresponding values for `Cc1ccc(C(=O)Nc2ccc(CN3CCN(C)CC3)c(C(F)(F)F)c2)cc1Oc1nc(-c2ccsc2)nc2c1cnn2C` [II-m-10] are 36.4 nM and 449 nM.
For `Cc1ccc(C(=O)Nc2ccc(CN3CCN(C)CC3)c(C(F)(F)F)c2)cc1Oc1nc(-c2cccnc2)nc2cc[nH]c12` [III-m-1] the same measures were 2100 nM and 4500 nM.
The corresponding values for `CN1CCN(Cc2ccc(NC(=O)c3cc(Oc4nc(-c5ccsc5)nc5c4ncn5C)ccc3Cl)cc2C(F)(F)F)CC1` [I-o-11] are 1560 nM and 1680 nM.
Regarding `CN1CCN(Cc2ccc(NC(=O)c3cc(Oc4nc(-c5ccoc5)nc5c4ncn5C)ccc3Cl)cc2C(F)(F)F)CC1` [I-o-10], the GI50 amounted to 1910 nM on KIF5B-RET-BaF3 and 1370 nM on CCDC6-RET-BaF3.
The corresponding values for `CC(=O)NCC1CCN(c2ccc(NC(=O)c3ccc(C)c(Oc4nc(-c5ccncc5)nc5c4cnn5C)c3)cc2C(F)(F)F)CC1` [II-v-11] are 646 nM and 546 nM.
For `Cc1ccc(NC(=O)c2ccc(CN3CCN(C)CC3)c(C(F)(F)F)c2)cc1Oc1nc(-c2ccncc2)nc2ccn(C)c12` [III-i-4] the same measures were 1330 nM and 2020 nM.
For `CN1CCN(Cc2ccc(NC(=O)c3cc(Oc4nc(-c5ccoc5)nc5nn(C)cc45)ccc3Cl)cc2C(F)(F)F)CC1` [IV-o-10] the same measures were 3760 nM and 4290 nM.
For `Cc1ccc(Oc2nc(-c3cccc(N)c3)nc3nn(C)cc23)cc1C(=O)Nc1ccc(CN2CCN(C)CC2)c(C(F)(F)F)c1` [IV-n-8], the GI50 on KIF5B-RET-BaF3 came out at 1620 nM; on CCDC6-RET-BaF3, 2090 nM.
The corresponding values for `Cc1ccc(C(=O)Nc2ccc(CN3CCN(C)CC3)c(C(F)(F)F)c2)cc1Oc1nc(N2CC(C)OC(C)C2)nc2c1cnn2C` (stereo not drawn) [II-m-16] are 84.6 nM and 384 nM.
The corresponding values for `CN1CCN(Cc2ccc(C(=O)Nc3cccc(Oc4nc(-c5cccnc5)nc5c4cnn5C)c3)cc2C(F)(F)F)CC1` [II-h-1] are 953 nM and 1110 nM.
Consider `CN1CCN(Cc2ccc(NC(=O)c3cc(Oc4nc(-c5cccc(O)c5)nc5c4ncn5C)ccc3Cl)cc2C(F)(F)F)CC1` [I-o-6], for which the GI50 is 1360 nM on KIF5B-RET-BaF3 and 1290 nM on CCDC6-RET-BaF3.
For `Cc1ccc(Oc2nc(-c3cccc(N)c3)nc3c2ncn3C)cc1C(=O)Nc1ccc(CN2CCN(C)CC2)c(C(F)(F)F)c1` [I-n-9] the same measures were 1480 nM and 1550 nM.
For `Cc1ccc(Oc2cc(-c3cccnc3)nc3sccc23)cc1NC(=O)c1ccc(CN2CCN(C)CC2)c(C(F)(F)F)c1` [VII-j-1] the same measures were 1280 nM and 811 nM.
The corresponding values for `CCS(=O)(=O)NC1CCN(c2ccc(NC(=O)c3ccc(C)c(Oc4nc(-c5cccnc5)nc5c4cnn5C)c3)cc2C(F)(F)F)CC1` [II-v-14] are 69.3 nM and 73.9 nM.
`Cc1ccc(C(=O)Nc2ccc(CN3CCN(C)CC3)c(C(F)(F)F)c2)cc1Oc1nc(-c2ccncc2)nc2c1ncn2C` [I-m-3]: the values for the GI50 on KIF5B-RET-BaF3 and at CCDC6-RET-BaF3 were 1050 nM and 447 nM, respectively.
For `CC(=O)NC1CCN(c2ccc(NC(=O)c3ccc(C)c(Oc4nc(-c5ccncc5)nc5ccn(C)c45)c3)cc2C(F)(F)F)CC1` [III-v-9] the same measures were 1750 nM and 4210 nM.
For the molecule `Cc1ccc(C(=O)Nc2ccc(CN3CCN(C)CC3)c(C(F)(F)F)c2)cc1Oc1nc(-c2ccncc2)nc2c1cnn2C(C)C` [II-m-23], the GI50 at KIF5B-RET-BaF3 was found to be 916 nM; on CCDC6-RET-BaF3 it was 1100 nM.
The corresponding values for `Cc1ccc(Oc2nc(-c3cccnc3)nc3cc[nH]c23)cc1NC(=O)c1ccc(CN2CCN(C)CC2)c(C(F)(F)F)c1` [III-j-1] are 3250 nM and 5940 nM.
Regarding `Cc1ccc(NC(=O)c2ccc(CN3CCN(C)CC3)c(C(F)(F)F)c2)cc1Oc1nc(-c2ccncc2)nc2cc[nH]c12` [III-i-2], the figures for the GI50 on KIF5B-RET-BaF3 and on CCDC6-RET-BaF3 were 774 nM and 1400 nM, respectively.
